No end group written: not given here.
How the values were obtained:
hypothalamus [1] = conditions: 2 M NaCl 15 μL/g intraperitoneal, 2 hours; pS6 240/244 antibody without 3P peptide
Description: Magnetic beads were loaded by incubating 150 μL of Protein A Dynabeads (Invitrogen) with 4 μg of pS6 antibody in Buffer A (10 mM HEPES [pH 7.4], 150 mM KCl, 5 mM MgCl2, 1% NP40, 0.05% IgG-free BSA). Loading was allowed to proceed at 4° C. for a minimum of 1 day. Beads were washed three times with Buffer A immediately before use.
Mice were sacrificed by cervical dislocation. The hypothalamus was rapidly dissected in Buffer B on ice (1×HBSS, 4 mM NaHCO3, 2.5 mM HEPES [pH 7.4], 35 mM Glucose, 100 μg/mL cycloheximide). […] Samples were homogenized three times at 250 rpm and nine times at 750 rpm on a variable-speed homogenizer (Glas-Col) at 4° C. Homogenates were transferred to a microcentrifuge tube and clarified for 10 minutes at 4000 rpm at 4° C. The supernatant was then removed and transferred to a new tube on ice. […]
Immunoprecipitations were allowed to proceed for 30-60 min at 4° C. […] RNA quality was quantified using a NanoDrop spectrophotometer and the quality assessed using an Agilent 2100 bioanalyzer. […] For Taqman analysis, cDNA was prepared using the Sensiscript RT kit (Qiagen) and analyzed using an Applied Biosystems 7900HT system. […]
The ratio of the signal intensities for each gene in the IP (immunoprecipitation) and input was calculated for each experiment, these values were averaged across replicates, and all genes were sorted according to their fold-enrichment.

pS6 = assay: Hypothalamic immunostaining for pS6; type: in vivo, mouse
Description: (§1) Wild-type male C57B6/J mice from Jackson laboratories were maintained on a 8 pm:8 am light-dark schedule and were 9-13 weeks old at the time of sacrifice. All dissections were performed between noon and 2 pm except as noted. For osmotic stimulation experiments, animals were given an intraperitoneal injection of 2M NaCl (350 μL), water was removed from the cage, and mice were sacrificed 120-140 min later. […] Control mice were fed ad libitum and sacrificed at the same time. For ghrelin experiments, animals were given an intraperitoneal injection of ghrelin (66 μg, Tocris), food was removed from the cage, and animals were dissected 70 min later. For scheduled feeding, animals were allowed access to food between noon and 3 pm each day, and then sacrificed between 1:45 and 2 pm after a minimum of 10 days on this schedule.
Mice were sacrified at the indicated times by isoflurane anesthesia followed by transcardial perfusion with PBS and then 10% formalin. Brains were dissected, incubated in 10% formalin overnight at 4° C., and 40 μm sections were prepared on a vibratome. Free floating sections were blocked for 1 h at room temperature in buffer E (PBS, 0.1% Triton, 2% goat serum, 3% BSA), and then stained overnight at 4° C. with primary antibodies at the indicated concentrations. For pS6 244 staining, the pS6 240/244 polyclonal antibody (Cell Signaling, #2215) was combined with the 3P peptide (250 nM final concentration). […]
Images were acquired using an LSM510 laser scanning confocal microscope. pS6 was quantified in specific neuronal populations as follows. […] The surfaces corresponding to each labelled cell in the field (e.g. each POMC cell) were reconstructed using Imaris software (Bitplane), and the mean intensity in the pS6 channel within the volume bounded by the surface of each labelled cell was recorded. […] In cases where the absolute number of pS6 positive cells within an anatomic region was desired (e.g. Pdyn neurons in the DMH), the number of pS6 positive and negative cells was counted manually.

hypothalamus [2] = assay: Phosphorylated ribosome profiling (Taqman array) of hypothalamus after salt challenge; type: in vivo, mouse; conditions: 2M NaCl 350 μL intraperitoneal, 120-140 min; 3P peptide
Description: (§2) Mice were sacrificed by cervical dislocation. […] Homogenates were transferred to a microcentrifuge tube and clarified at 2000×g for 10 min at 4° C. […] This solution was mixed and then clarified at 17000×g for 10 min at 4° C. The resulting high-speed supernatant was transferred to a new tube, and 20 μL of a 0.05 mM stock solution of 3P peptide was added. A 20 μL aliquot of this solution was removed, transferred to a new tube containing 350 μL buffer RLT (Qiagen), and stored at −80° C. for purification as input RNA. The remainder was used for immunoprecipitation.
(§3) Immunoprecipitations were allowed to proceed 10 min at 4° C. […] During the third wash the beads were transferred to a new tube and allowed to incubate at RT for 10 min. […] RNA assessed using an Agilent 2100 bioanalyzer.
as §1
(§4) Taqman probes were designed and ordered for quantification of each of the 225 genes described in Table 4. Probes were distributed to 96-well plates in duplicate, cDNA was prepared using the Quantitect RT kit (Qiagen), and reactions were run using the Taqman Gene Expression Master Mix (ABI) on an Applied Biosystems 7900HT system. For each experiment (stimulus or control), the abundance of each gene in the input RNA and in the pS6 immunoprecipitated RNA was measured in duplicate. The mean RNA abundance was determined, normalized to an rpL27 probe that was present in every plate, and the ratio (IP/Input) was calculated. The experiment was repeated multiple times for each stimulus or control, these values were averaged, and the differential enrichment was calculated (ratio of (IP/Input) stimulus over control). Note that the differential enrichment was calculated because the neuronal markers that become enriched or depleted specifically in response to the stimulus was of interest. Normalization to the control group accounts for the fact that each neural marker has a somewhat different enrichment at baseline, reflecting the fact that each cell-population has somewhat different level of basal pS6. Follow-up analysis focused in every case on the most highly enriched genes in the experiment, which were validated directly by histology.

pS6 and c-fos = type: in vivo, mouse; conditions: intraperitoneal: cocaine 30 mg/kg 60 min, kainate 12.5 mg/kg 120 min, haloperidol 2 mg/kg 30 min, olanzapine 20 mg/kg 120 min, clozapine 10 mg/kg 45 min; ghrelin
Description: (§5) Wild-type male C57B6/J mice from Jackson laboratories were maintained on a 8 pm:8 am light-dark schedule and were 9-13 weeks old at the time of sacrifice. All dissections were performed between noon and 2 pm except as noted. For osmotic stimulation experiments, animals were given an intraperitoneal injection of 2M NaCl (350 μL), water was removed from the cage, and mice were sacrificed 120-140 min later. For fasting experiments, animals were transferred to a new cage without food at 5 pm and then sacrificed at 8 am the following morning. Control mice were fed ad libitum and sacrificed at the same time. For ghrelin experiments, animals were given an intraperitoneal injection of ghrelin (66 μg, Tocris), food was removed from the cage, and animals were dissected 70 min later. For scheduled feeding, animals were allowed access to food between noon and 3 pm each day, and then sacrificed between 1:45 and 2 pm after a minimum of 10 days on this schedule.

hypothalamus [3] = assay: Phosphorylated ribosome profiling (Taqman array) of hypothalamus after ghrelin injection; type: in vivo, mouse; conditions: ghrelin 66 μg intraperitoneal, 70 min
Description: as §2, §3
Wild-type male C57B6/J mice from Jackson laboratories were maintained on a 8 pm:8 am light-dark schedule and were 9-13 weeks old at the time of sacrifice. All dissections were performed between noon and 2 pm except as noted. […]
as §4, with “Normalization to the control group accounts for the fact that each neural marker has a somewhat different enrichment at baseline, reflecting the fact that each cell-population has somewhat different level of basal pS6. Follow-up analysis focused in every case on the most highly enriched genes in the experiment, which were validated directly by histology.” left out

K-opioid receptor (KOR) = target: T1, K-opioid receptor (KOR) (Mus musculus, UniProt P33534); assay: Food intake and body weight after treatment with KOR antagonists during scheduled or ad libitum feeding; type: in vivo
T1 construct: An intraperitoneal injection of either a selective KOR antagonist (JDTic) or vehicle was administered to mice; from tissue; host or cells: whole animal (wild-type male C57B6/J mice), i.p. or intracerebroventricular dosing
Description: as §5
JDTic was either delivered by intraperitoneal injection (10 mg/kg) or was reconstituted in PBS to a concentration of 1 mg/mL and 5 ul was delivered via Hamilton syringe into the lateral ventricle using coordinates: L/M 1.0 mm from Bregma, A/P −0.4 mm from Bregma and 2.5 mm beneath the cortex. Norbinaltorphimine was delivered at the same dose and coordinates as described above.

[4] = target: phosphorylated ribosomal protein S6 (mouse), in ribosomes of cell lysates (Mus musculus) (UniProt P62754); assay: immunoprecipitation of ribosomes from MEF lysates, recovered RNA quantified
[5] = target: phosphorylated ribosomal protein S6 (mouse), in ribosomes of cell lysates (Mus musculus) (UniProt P62754); assay: immunoprecipitation of ribosomes from MEF lysates, recovered RNA quantified by Bioanalyzer
[6] = ad libitum fed animals, intraperitoneal injection
[7] = scheduled feeding, intraperitoneal injection 10 mg/kg, single dose

T1 sequence (P33534 whole entry): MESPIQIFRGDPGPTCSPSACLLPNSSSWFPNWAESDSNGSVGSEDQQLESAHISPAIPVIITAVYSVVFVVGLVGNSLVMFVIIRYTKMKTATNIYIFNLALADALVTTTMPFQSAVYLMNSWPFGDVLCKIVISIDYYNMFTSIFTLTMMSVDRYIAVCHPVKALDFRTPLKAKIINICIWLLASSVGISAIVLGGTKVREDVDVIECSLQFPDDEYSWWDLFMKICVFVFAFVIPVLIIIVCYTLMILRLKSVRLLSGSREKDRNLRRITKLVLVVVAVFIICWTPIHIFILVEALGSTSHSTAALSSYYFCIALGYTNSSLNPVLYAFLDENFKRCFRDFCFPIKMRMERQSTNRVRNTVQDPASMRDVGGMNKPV

[Cl-].[Na+] [salt, NaCl]
enrichment of Avp in pS6 IPs from salt challenged animals relative to controls, by Taqman (hypothalamus [1]): 7.9 fold | pS6 staining in PVN, SON and median eminence of the hypothalamus (pS6; salt challenge, 2M NaCl versus vehicle (PBS), pS6 244 staining): induced an increase in pS6 | enrichment of Cxcl1 in pS6 immunoprecipitates, salt challenged relative to controls (hypothalamus [2]): 13 fold | enrichment of Fezf2 in pS6 immunoprecipitates, salt challenged relative to controls (hypothalamus [2]): 5.5 fold | enrichment of FosB in pS6 immunoprecipitates, salt challenged relative to controls (hypothalamus [2]): 38 fold | enrichment of Nhlh2 in pS6 immunoprecipitates, salt challenged relative to controls (hypothalamus [2]): 7.3 fold | enrichment of Sim1 in pS6 immunoprecipitates, salt challenged relative to controls (hypothalamus [2]): 4.0 fold | enrichment of corticotropin releasing hormone (Crh) in pS6 immunoprecipitates, salt challenged relative to controls (hypothalamus [2]): 10 fold | enrichment of galanin (Gal) in pS6 immunoprecipitates, salt challenged relative to controls (hypothalamus [2]): 4.6 fold | enrichment of oxytocin (Oxt) in pS6 immunoprecipitates, salt challenged relative to controls (hypothalamus [2]): 14 fold | enrichment of prodynorphin (Pdyn) in pS6 immunoprecipitates, salt challenged relative to controls (hypothalamus [2]): 3.4 fold | enrichment of relaxin-1 (Rln1) in pS6 immunoprecipitates, salt challenged relative to controls (hypothalamus [2]): 6.1 fold | enrichment of somatostatin (Sst) in pS6 immunoprecipitates, salt challenged relative to controls (hypothalamus [2]): 3.1 fold | enrichment of urocortin-3 (Ucn3) in pS6 immunoprecipitates, salt challenged relative to controls (hypothalamus [2]): 5.3 fold | enrichment of vasopressin (Avp) in pS6 immunoprecipitates, salt challenged relative to controls (hypothalamus [2]): 49 fold

C=C(C)[C@H]1CN[C@H](C(=O)O)[C@H]1CC(=O)O [kainate]
co-localization of pS6 and c-fos in brain regions (pS6 and c-fos): induce co-localization of pS6 and c-fos

ghrelin (GSSFLSPEHQRVQQRKESKKPPAKLQPR; not fully specified (residue 3); ends and bridges not checked; UniProt Q9UBU3 24-51, looked up) [the hormone ghrelin (Tocris)]
co-localization of pS6 and c-fos in brain regions (pS6 and c-fos): extensive co-localization of c-fos and pS6 | enrichment of AgRP in pS6 immunoprecipitates relative to controls (hypothalamus [3]): 27 fold | enrichment of NPY in pS6 immunoprecipitates relative to controls (hypothalamus [3]): 21 fold | enrichment of the ghrelin receptor in pS6 immunoprecipitates relative to controls (hypothalamus [3]): 7.1 fold | pS6 levels in the compact part of the DMH (pS6; ghrelin IP injection, 1 h): did not increase | pS6 staining in the Arc (pS6; ghrelin IP injection, 1 h): induced strong pS6

Oc1ccc2c3c1O[C@H]1c4[nH]c5c(c4C[C@@]4(O)[C@@H](C2)N(CC2CC2)CC[C@]314)C[C@@]1(O)[C@H]2Cc3ccc(O)c4c3[C@@]1(CCN2CC1CC1)[C@H]5O4 [norbinaltorphimine]
increase in food intake (K-opioid receptor (KOR); scheduled feeding, intracerebroventricular injection): more than 50%

rabbit anti-pS6 240/244 polyclonal antibody (Cell Signaling #2215)
fold more RNA associated with immunoprecipitate, wild-type MEFs against S6S5A cells [4]: 100 fold | fold more RNA isolated in immunoprecipitate, wild-type MEFs against S6^S5A controls [5]: 100 fold

O=C(CCCN1CCC(O)(c2ccc(Cl)cc2)CC1)c1ccc(F)cc1 [haloperidol]
co-localization of pS6 and c-fos in brain regions (pS6 and c-fos): induce co-localization of pS6 and c-fos

JDTic
body weight (K-opioid receptor (KOR); [6]): no impact | food intake (K-opioid receptor (KOR); [6]): no impact | body weight relative to the control group (K-opioid receptor (KOR); [7]): more rapid regain | food intake relative to the control group (K-opioid receptor (KOR); [7]): increased more rapidly
